# Reference: ChEMBL document CHEMBL1151449, “In vitro activity of DC-159a, a new broad-spectrum fluoroquinolone, compared with that of other agents against drug-susceptible and -resistant pneumococci” (2008)
# Columns and labels:
# Type in all cases: functional
# Streptococcus pneumoniae [1] = assay: (§1) Antibacterial activity against penicillin-, macrolide-susceptible and quinolone-resistant Streptococcus pneumoniae HMC 1074 harboring S81F mutation in quinolone-resistant determining regions of GyrA gene, S79F mutation in QRDR of ParC gene and I460V mutation in QRDR of ParE gene after 50 passages by broth microdilution method
# Streptococcus pneumoniae [2] = assay: Antibacterial activity against penicillin-susceptible, quinolone-resistant Streptococcus pneumoniae 1072 expressing ermB and harboring S81F mutation in quinolone-resistant determining regions of GyrA gene, S79Y mutation in QRDR of ParC gene and I460V mutation in QRDR of ParE gene by broth microdilution method
# Streptococcus pneumoniae [3] = assay: Antibacterial activity against penicillin-resistant Streptococcus pneumoniae […] by agar dilution method
# Streptococcus pneumoniae [4] = assay: (§2) Antibacterial activity against macrolide-, quinolone-susceptible and penicillin-intermediate Streptococcus pneumoniae HMC 100 harboring S81Y mutation in quinolone-resistant determining regions of GyrA gene after 22 passages with moxifloxacin measured after 10 daily antibiotic-free subculturing by multi-step resistance selection technique
# Streptococcus pneumoniae [5] = assay: Antibacterial activity against macrolide-, quinolone-susceptible and penicillin-intermediate Streptococcus pneumoniae HMC 99 after 50 passages by broth microdilution method
# Streptococcus pneumoniae [6] = assay: as §2, with “S81Y and S79Y” for “S81Y”, “and ParC genes respectively” for “gene”, “42” for “22”, “levofloxacin” for “moxifloxacin”
# Streptococcus pneumoniae [7] = assay: (§3) Antibacterial activity against penicillin-resistant and quinolone-susceptible Streptococcus pneumoniae HMC 3583 expressing mefA and harboring S81F mutation in quinolone-resistant determining regions of GyrA gene, D83N mutation in QRDR of ParC gene and I460V mutation in QRDR of ParE gene after 44 passages with levofloxacin measured after 10 daily antibiotic-free subculturing by multi-step resistance selection technique
# Streptococcus pneumoniae [8] = assay: Antibacterial activity against azithromycin-susceptible Streptococcus pneumoniae ATCC 49619 by agar dilution method
# Streptococcus pneumoniae [9] = assay: as §1, with “gene” for “gene after 50 passages”
# Streptococcus pneumoniae [10] = assay: Antibacterial activity against macrolide-, quinolone-susceptible and penicillin-intermediate Streptococcus pneumoniae HMC 100 by broth microdilution method
# Streptococcus pneumoniae [11] = assay: Antibacterial activity against quinolone-susceptible and penicillin-intermediate Streptococcus pneumoniae HMC 5048 expressing mefA after 50 passages by broth microdilution method
# Streptococcus pneumoniae [12] = assay: Antibacterial activity against penicillin-, macrolide-susceptible and quinolone-resistant Streptococcus pneumoniae HMC 1074 harboring S81F, E85K mutation in quinolone-resistant determining regions of GyrA gene, S79F mutation in QRDR of ParC gene and I460V mutation in QRDR of ParE gene after 27 passages with gemifloxacin measured after 10 daily antibiotic-free subculturing by multi-step resistance selection technique
# Streptococcus pneumoniae [13] = assay: Antibacterial activity against macrolide-, quinolone-susceptible and penicillin-intermediate Streptococcus pneumoniae HMC 99 by broth microdilution method
# Streptococcus pneumoniae [14] = assay: as §3, with “49” for “44”, “DC-159a” for “levofloxacin”
# Streptococcus pneumoniae [15] = assay: Antibacterial activity against penicillin-resistant and quinolone-susceptible Streptococcus pneumoniae HMC 228 expressing ermB by broth microdilution method
# Streptococcus pneumoniae [16] = assay: Antibacterial activity against penicillin-, macrolide- and quinolone-susceptible Streptococcus pneumoniae HMC 63 harboring S81F mutation in quinolone-resistant determining regions of GyrA gene, D83Y mutation in QRDR of ParC gene and I460V mutation in QRDR of ParE gene after 34 passages with gemifloxacin measured after 10 daily antibiotic-free subculturing by multi-step resistance selection technique
# Streptococcus pneumoniae [17] = assay: as §2, with “99” for “100”, “S81Y and S79Y” for “S81Y”, “and ParC genes respectively” for “gene”, “41” for “22”
# Streptococcus pneumoniae [18] = assay: Antibacterial activity against penicillin- and quinolone-susceptible Streptococcus pneumoniae HMC 5055 expressing mefA by broth microdilution method
# Streptococcus pneumoniae [19] = assay: Antibacterial activity against penicillin-susceptible Streptococcus pneumoniae ATCC 49619 by agar dilution method
# Streptococcus pneumoniae [20] = assay: as §3, with “228” for “3583”, “ermB” for “mefA”, “S79Y” for “D83N”, “38” for “44”, “gatifloxacin” for “levofloxacin”
# Streptococcus pneumoniae [21] = assay: Antibacterial activity against quinolone-susceptible Streptococcus pneumoniae ATCC 49619 by agar dilution method
# Streptococcus pneumoniae [22] = assay: Antibacterial activity against penicillin-resistant and quinolone-susceptible Streptococcus pneumoniae HMC 3583 expressing mefA by broth microdilution method
# Streptococcus pneumoniae [23] = assay: Antibacterial activity against penicillin- and quinolone-susceptible Streptococcus pneumoniae HMC 5055 expressing mefA after 50 passages by broth microdilution method
# Streptococcus pneumoniae [24] = assay: as §2, with “S79Y” for “S81Y”, “ParC” for “GyrA”, “34” for “22”, “gemifloxacin” for “moxifloxacin”
# Streptococcus pneumoniae [25] = assay: Antibacterial activity against quinolone-susceptible and penicillin-intermediate Streptococcus pneumoniae HMC 5048 expressing mefA by broth microdilution method
# Streptococcus pneumoniae [26] = assay: Antibacterial activity against quinolone-susceptible and penicillin-intermediate Streptococcus pneumoniae HMC 441 expressing ermB by broth microdilution method
# Streptococcus pneumoniae [27] = assay: as §3, with “GyrA” for “GyrA gene, D83N mutation in QRDR of ParC”, “I460V, D435N” for “I460V”, “46” for “44”, “gatifloxacin” for “levofloxacin”
# Streptococcus pneumoniae [28] = assay: Antibacterial activity against penicillin-intermediate Streptococcus pneumoniae […] by agar dilution method
# Streptococcus pneumoniae [29] = assay: Antibacterial activity against macrolide-, quinolone-susceptible and penicillin-intermediate Streptococcus pneumoniae HMC 100 after 50 passages by broth microdilution method
# Streptococcus pneumoniae [30] = assay: Antibacterial activity against penicillin-, quinolone-resistant Streptococcus pneumoniae HMC 1541 harboring mutation in L4 protein by broth microdilution method
# Streptococcus pneumoniae [31] = assay: Antibacterial activity against azithromycin-resistant Streptococcus pneumoniae […] by agar dilution method
# Streptococcus pneumoniae [32] = assay: Antibacterial activity against penicillin-resistant and quinolone-susceptible Streptococcus pneumoniae HMC 3583 expressing mefA after 50 passages by broth microdilution method
# Streptococcus pneumoniae [33] = assay: as §3, with “228” for “3583”, “ermB” for “mefA”, “S79Y” for “D83N”, “36” for “44”, “moxifloxacin” for “levofloxacin”
# Streptococcus pneumoniae [34] = assay: Antibacterial activity against penicillin-, macrolide- and quinolone-susceptible Streptococcus pneumoniae HMC 63 after 50 passages by broth microdilution method
# Streptococcus pneumoniae [35] = assay: Antibacterial activity against penicillin-, macrolide- and quinolone-susceptible Streptococcus pneumoniae HMC 63 by broth microdilution method
# Streptococcus pneumoniae [36] = assay: Antibacterial activity against quinolone-resistant Streptococcus pneumoniae […] by agar dilution method
# Streptococcus pneumoniae [37] = assay: as §3, with “228” for “3583”, “ermB” for “mefA”, “28” for “44”, “DC-159a” for “levofloxacin”
# Streptococcus pneumoniae [38] = assay: Antibacterial activity against penicillin-resistant and quinolone-susceptible Streptococcus pneumoniae HMC 3583 expressing mefA and harboring I460V mutation in QRDR of ParE gene after 41 passages with gemifloxacin measured after 10 daily antibiotic-free subculturing by multi-step resistance selection technique
# Streptococcus pneumoniae [39] = assay: Antibacterial activity against penicillin-, quinolone-resistant and macrolide-susceptible Streptococcus pneumoniae HMC 1058 harboring S79F, K137N mutation in quinolone-resistant determining regions of ParC gene and 460V mutation in QRDR of ParE gene by broth microdilution method
compound,measurement,setting,value
CC[C@H]1OC(=O)[C@H](C)[C@@H](O[C@H]2C[C@@](C)(OC)[C@@H](O)[C@H](C)O2)[C@H](C)[C@@H](O[C@@H]2O[C@H](C)C[C@H](N(C)C)[C@H]2O)[C@](C)(O)C[C@@H](C)CN(C)[C@H](C)[C@@H](O)[C@]1(C)O [AZITHROMYCIN],MIC,Streptococcus pneumoniae [1],0.03 µg/mL
same,MIC,Streptococcus pneumoniae [2],> 64 µg/mL
same,MIC50,Streptococcus pneumoniae [3],2 µg/mL
same,MIC,Streptococcus pneumoniae [4],0.03 µg/mL
same,MIC,Streptococcus pneumoniae [5],0.06 µg/mL
same,MIC,Streptococcus pneumoniae [6],0.03 µg/mL
same,MIC,Streptococcus pneumoniae [7],2 µg/mL
same,MIC50,Streptococcus pneumoniae [8],0.12 µg/mL
same,MIC90,Streptococcus pneumoniae [8],0.12 µg/mL
same,MIC,Streptococcus pneumoniae [9],0.03 µg/mL
same,MIC,Streptococcus pneumoniae [10],0.03 µg/mL
same,MIC,Streptococcus pneumoniae [11],8 µg/mL
same,MIC,Streptococcus pneumoniae [12],0.016 µg/mL
same,MIC,Streptococcus pneumoniae [13],0.016 µg/mL
same,MIC,Streptococcus pneumoniae [14],0.25 µg/mL
same,MIC,Streptococcus pneumoniae [15],> 64 µg/mL
same,MIC,Streptococcus pneumoniae [16],0.03 µg/mL
same,MIC,Streptococcus pneumoniae [17],0.016 µg/mL
same,MIC,Streptococcus pneumoniae [18],2 µg/mL
same,MIC50,Streptococcus pneumoniae [19],0.12 µg/mL
same,MIC90,Streptococcus pneumoniae [19],> 64 µg/mL
same,MIC,Streptococcus pneumoniae [20],2 µg/mL
same,MIC50,Streptococcus pneumoniae [21],1 µg/mL
same,MIC90,Streptococcus pneumoniae [21],> 64 µg/mL
same,MIC,Streptococcus pneumoniae [22],2 µg/mL
same,MIC,Streptococcus pneumoniae [23],8 µg/mL
same,MIC,Streptococcus pneumoniae [24],0.06 µg/mL
same,MIC,Streptococcus pneumoniae [25],4 µg/mL
same,MIC,Streptococcus pneumoniae [26],> 64 µg/mL
same,MIC,Streptococcus pneumoniae [27],0.25 µg/mL
same,MIC50,Streptococcus pneumoniae [28],0.12 µg/mL
same,MIC90,Streptococcus pneumoniae [28],> 64 µg/mL
same,MIC,Streptococcus pneumoniae [29],0.03 µg/mL
same,MIC,Streptococcus pneumoniae [30],> 64 µg/mL
same,MIC50,Streptococcus pneumoniae [31],> 64 µg/mL
same,MIC,Streptococcus pneumoniae [32],4 µg/mL
same,MIC,Streptococcus pneumoniae [33],> 64 µg/mL
same,MIC,Streptococcus pneumoniae [34],0.06 µg/mL
same,MIC,Streptococcus pneumoniae [35],0.016 µg/mL
same,MIC50,Streptococcus pneumoniae [36],0.06 µg/mL
same,MIC,Streptococcus pneumoniae [37],> 64 µg/mL
same,MIC,Streptococcus pneumoniae [38],0.25 µg/mL
same,MIC,Streptococcus pneumoniae [39],0.06 µg/mL
